# Reference: US8889870B2, “Kinase inhibitors” (Allergan, Inc., priority 2012, dated 2014)
# Molecular target: VEGFR2 (KDR) kinase, purified cytoplasmic domain KDR protein (Homo sapiens (Human), UniProt P35968)
# Assay: VEGFR2 Kinase Assay
# Format: biochemical
# Details: 2.7 μM ATP, poly-Glu-Tyr (4:1) substrate, 15 minute incubation at 30° C., ELISA read at 492 nm
# Protocol: Biochemical KDR kinase assays were performed in 96 well microliter plates that were coated overnight with 75 μg/well of poly-Glu-Tyr (4:1) in 10 mM Phosphate Buffered Saline (PBS), pH 7.4. The coated plates were washed with 2 mLs per well PBS+0.05% Tween-20 (PBS-T), blocked by incubation with PBS containing 1% BSA, then washed with 2 mLs per well PBS-T prior to starting the reaction. […] Reactions were initiated by the addition 20 ul per well of kinase buffer containing 200-300 ng purified cytoplasmic domain KDR protein (BPS Bioscience, San Diego, Calif.). Following a 15 minute incubation at 30° C., the reactions were washed 2 mLs per well PBS-T. 100 μl of a monoclonal anti-phosphotyrosine antibody-peroxidase conjugate diluted 1:10,000 in PBS-T was added to the wells for 30 minutes. Following a 2 mLs per well wash with PBS-Tween-20, 100 μl of O-Phenylenediamine Dihydrochloride in phosphate-citrate buffer, containing urea hydrogen peroxide, was added to the wells for 7-10 minutes as a colorimetric substrate for the peroxidase. […] IC50 values for compound inhibition were calculated directly from graphs of optical density (arbitrary units) versus compound concentration following subtraction of blank values.
# Chain of VEGFR2 (KDR) kinase, purified cytoplasmic domain KDR protein (P35968 786-1356): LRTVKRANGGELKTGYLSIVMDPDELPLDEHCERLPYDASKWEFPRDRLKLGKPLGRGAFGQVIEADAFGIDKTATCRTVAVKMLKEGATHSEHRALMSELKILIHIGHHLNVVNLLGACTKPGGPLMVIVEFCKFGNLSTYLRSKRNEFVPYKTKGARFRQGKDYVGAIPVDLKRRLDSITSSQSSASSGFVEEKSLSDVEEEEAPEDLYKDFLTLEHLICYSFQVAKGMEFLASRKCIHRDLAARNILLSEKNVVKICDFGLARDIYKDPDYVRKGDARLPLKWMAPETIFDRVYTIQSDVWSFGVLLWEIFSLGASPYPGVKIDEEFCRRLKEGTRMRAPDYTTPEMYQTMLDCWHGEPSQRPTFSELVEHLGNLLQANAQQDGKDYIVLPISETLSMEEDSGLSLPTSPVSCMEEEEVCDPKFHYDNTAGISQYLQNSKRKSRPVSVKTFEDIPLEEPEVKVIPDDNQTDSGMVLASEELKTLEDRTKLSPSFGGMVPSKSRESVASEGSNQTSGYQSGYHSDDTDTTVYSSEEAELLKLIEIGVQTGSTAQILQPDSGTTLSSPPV
row,Compound,IC50
1,"4-(2-Methylsulfanyl-5,7-dihydro-pyrrolo[3,4-d]pyrimidin-6-yl)-pyridine-2-carboxylic acid (3-trifluoromethyl-phenyl)-amide [Example 126]",> 10 µM
2,"CSc1ncc2c(n1)CCN(c1cc(C)cc(C(=O)Nc3cccc(C(F)(F)F)c3)c1)C2 [Example 140, 3-methyl-5-[2-(methylthio)-7,8-dihydropyrido[4,3-d]pyrimidin-6(5H)-yl]-N-[3-(trifluoromethyl)phenyl]benzamide]",> 1 µM
3,"CSc1ncc2c(n1)CCN(c1cc(C)cc(C(=O)Nc3cccc(C(C)C)c3)c1)C2 [Example 142, N-(3-isopropylphenyl)-3-methyl-5-[2-(methylthio)-7,8-dihydropyrido[4,3-d]pyrimidin-6(5H)-yl]benzamide]",> 1 µM
4,"Cc1ccc(NC(=O)Nc2ccc(N3CCc4ccncc4C3)cc2)cc1 [Example 165, 1-[4-(3,4-dihydro-2,7-naphthyridin-2(1H)-yl)phenyl]-3-(4-methylphenyl)urea]",> 1 µM

# Molecular target: PDGFRβ kinase, purified cytoplasmic domain PDGFR-b protein (Homo sapiens (Human), UniProt P09619)
# Assay: PDGFRβ Kinase Assay
# Format: biochemical
# Details: 36 μM ATP, poly-Glu-Tyr (4:1) substrate, 60 minute incubation at 30° C., ELISA read at 492 nm
# Protocol: Biochemical PDGFRβ kinase assays were performed in 96 well microtiter plates that were coated overnight with 75 μg of poly-Glu-Tyr (4:1) in 10 mM Phosphate Buffered Saline (PBS), pH 7.4. The coated plates were washed with 2 mLs per well PBS+0.05% Tween-20 (PBS-T), blocked by incubation with PBS containing 1% BSA, then washed with 2 mLs per well PBS-T prior to starting the reaction. Reactions were carried out in 100 μL reaction volumes containing 36 μM ATP in kinase buffer (50 mM Hepes buffer pH 7.4, 20 mM MgCl2, 0.1 mM MnCl2 and 0.2 mM Na3VO4). Test compounds were reconstituted in 100% DMSO and added to the reaction to give a final DMSO concentration of 5%. Reactions were initiated by the addition 20 ul per well of kinase buffer containing 200-300 ng purified cytoplasmic domain PDGFR-b protein (Millipore). Following a 60 minute incubation at 30° C., the reactions were washed 2 mLs per well PBS-T. 100 μl of a monoclonal anti-phosphotyrosine antibody-peroxidase conjugate diluted 1:10,000 in PBS-T was added to the wells for 30 minutes. Following a 2 mLs per well wash with PBS-Tween-20, 100 μl of O-Phenylenediamine Dihydrochloride in phosphate-citrate buffer, containing urea hydrogen peroxide, was added to the wells for 7-10 minutes as a colorimetric substrate for the peroxidase. The reaction was terminated by the addition of 100 μl of 2.5N H2SO4 to each well and read using a microplate ELISA reader set at 492 nm. IC50 values for compound inhibition were calculated directly from graphs of optical density (arbitrary units) versus compound concentration following subtraction of blank values. […]
# Chain of PDGFRβ kinase, purified cytoplasmic domain PDGFR-b protein (P09619 554-1106): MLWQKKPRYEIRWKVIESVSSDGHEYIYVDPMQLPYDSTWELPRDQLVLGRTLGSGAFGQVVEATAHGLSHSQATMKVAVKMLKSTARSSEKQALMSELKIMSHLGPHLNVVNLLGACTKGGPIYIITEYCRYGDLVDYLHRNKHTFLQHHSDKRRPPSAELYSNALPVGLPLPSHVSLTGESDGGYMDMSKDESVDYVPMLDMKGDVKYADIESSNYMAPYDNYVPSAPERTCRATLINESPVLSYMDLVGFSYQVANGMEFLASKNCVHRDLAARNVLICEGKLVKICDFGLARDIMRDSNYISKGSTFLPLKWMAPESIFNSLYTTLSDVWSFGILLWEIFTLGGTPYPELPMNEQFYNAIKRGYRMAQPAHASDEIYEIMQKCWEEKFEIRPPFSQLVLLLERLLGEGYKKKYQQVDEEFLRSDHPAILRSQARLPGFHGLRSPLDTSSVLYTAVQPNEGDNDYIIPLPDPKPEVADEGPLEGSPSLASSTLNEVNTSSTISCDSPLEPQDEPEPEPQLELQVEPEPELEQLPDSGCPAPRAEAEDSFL
row,Compound,IC50
1,"CC(C)c1cccc(NC(=O)c2cccc(N3CCc4nc(N)ncc4C3)c2)c1 [Example 2, 3-(2-amino-7,8-dihydropyrido[4,3-d]pyrimidin-6(5H)-yl)-N-(3-isopropylphenyl)benzamide]",0.054 µM
2,"Cc1cccc(NC(=O)c2cccc(N3CCc4nc(N)ncc4C3)c2)c1 [Example 3, 3-(2-amino-7,8-dihydropyrido[4,3-d]pyrimidin-6(5H)-yl)-N-(3-methylphenyl)benzamide]",0.116 µM
3,"CC(C)(C)c1ccc(NC(=O)c2cccc(N3CCc4nc(N)ncc4C3)c2)cc1 [Example 4, 3-(2-amino-7,8-dihydropyrido[4,3-d]pyrimidin-6(5H)-yl)-N-(4-tert-butylphenyl)benzamide]",0.109 µM
4,"Nc1ncc2c(n1)CCN(c1cccc(C(=O)Nc3cccc(C(F)(F)F)c3)c1)C2 [Example 5, 3-(2-amino-7,8-dihydropyrido[4,3-d]pyrimidin-6(5H)-yl)-N-[3-(trifluoromethyl)phenyl]benzamide]",0.047 µM
5,"Cc1ccc(NC(=O)c2cccc(N3CCc4nc(N)ncc4C3)c2)cc1 [Example 6, 3-(2-amino-7,8-dihydropyrido[4,3-d]pyrimidin-6(5H)-yl)-N-(4-methylphenyl)benzamide]",0.09 µM
6,"CCCCNC(=O)c1cccc(N2CCc3nc(N)ncc3C2)c1 [Example 16, 3-(2-amino-7,8-dihydropyrido[4,3-d]pyrimidin-6(5H)-yl)-N-butylbenzamide]",> 10 µM
7,"CC(C)(C)C1CCC(NC(=O)c2cccc(N3CCc4nc(N)ncc4C3)c2)CC1 (centres unmarked) [Example 17, 3-(2-amino-7,8-dihydropyrido[4,3-d]pyrimidin-6(5H)-yl)-N-(4-tert-butylcyclohexyl)benzamide]",0.246 µM
8,"Nc1ncc2c(n1)CCN(c1cccc(C(=O)NCC3CCCCC3)c1)C2 [Example 18, 3-(2-amino-7,8-dihydropyrido[4,3-d]pyrimidin-6(5H)-yl)-N-(cyclohexylmethyl)benzamide]",0.602 µM
9,"Nc1ncc2c(n1)CCN(c1cccc(C(=O)NC3CCCC3)c1)C2 [Example 19, 3-(2-amino-7,8-dihydropyrido[4,3-d]pyrimidin-6(5H)-yl)-N-cyclopentylbenzamide]",> 10 µM
10,"Cc1cccc(NC(=O)c2cccc(N3CCc4nc(N)ncc4C3)n2)c1 [Example 37, 6-(2-amino-7,8-dihydropyrido[4,3-d]pyrimidin-6(5H)-yl)-N-(3-methylphenyl)pyridine-2-carboxamide]",> 10 µM
11,"Cc1cc(C(=O)Nc2cccc(C(F)(F)F)c2)cc(N2CCc3nc(N)ncc3C2)c1 [Example 148, 3-(2-amino-7,8-dihydropyrido[4,3-d]pyrimidin-6(5H)-yl)-5-methyl-N-[3-(trifluoromethyl)phenyl]benzamide]",0.273 µM
12,"Cc1ccc(C(=O)Nc2cccc(C(C)C)c2)cc1N1CCc2nc(N)ncc2C1 [Example 149, 3-(2-amino-7,8-dihydropyrido[4,3-d]pyrimidin-6(5H)-yl)-N-(3-isopropylphenyl)-4-methylbenzamide]",0.03 µM
13,"Cc1cc(C(=O)Nc2cccc(C(C)C)c2)cc(N2CCc3nc(N)ncc3C2)c1 [Example 150, 3-(2-amino-7,8-dihydropyrido[4,3-d]pyrimidin-6(5H)-yl)-N-(3-isopropylphenyl)-5-methylbenzamide]",0.059 µM
14,"O=C(Nc1ccc(N2CCc3ccncc3C2)cc1)c1cccc(C(F)(F)F)c1 [Example 162, N-[4-(3,4-dihydro-2,7-naphthyridin-2(1H)-yl)phenyl]-3-(trifluoromethyl)benzamide]",> 10 µM
15,"Cc1cccc(NC(=O)Nc2ccc(N3CCc4ccncc4C3)cc2)c1 [Example 163, 1-[4-(3,4-dihydro-2,7-naphthyridin-2(1H)-yl)phenyl]-3-(3-methylphenyl)urea]",1.56 µM
16,"O=C(Nc1ccccc1)Nc1ccc(N2CCc3ccncc3C2)cc1 [Example 164, 1-[4-(3,4-dihydro-2,7-naphthyridin-2(1H)-yl)phenyl]-3-phenylurea]",> 10 µM
17,"Cc1ccc(NC(=O)Nc2ccc(N3CCc4ccncc4C3)cc2)cc1 [Example 165, 1-[4-(3,4-dihydro-2,7-naphthyridin-2(1H)-yl)phenyl]-3-(4-methylphenyl)urea]",> 1 µM
18,"Cc1cccc(NC(=O)Nc2ccc(N3CCc4ccncc4C3)c(C)c2)c1 [Example 166, 1-[4-(3,4-dihydro-2,7-naphthyridin-2(1H)-yl)-3-methylphenyl]-3-(3-methylphenyl)urea]",0.036 µM
19,"Cc1cccc(NC(=O)Nc2ccc(N3CCc4ccncc4C3)cc2C)c1 [Example 167, 1-[4-(3,4-dihydro-2,7-naphthyridin-2(1H)-yl)-2-methylphenyl]-3-(3-methylphenyl)urea]",1.05 µM
20,"CC(C)c1cccc(NC(=O)c2cccc(N3CCc4ccncc4C3)c2)c1 [Example 168, 3-(3,4-dihydro-2,7-naphthyridin-2(1H)-yl)-N-(3-isopropylphenyl)benzamide]",0.04 µM
21,"COC(=O)c1cncc2c1CCN(c1cccc(C(=O)Nc3cccc(C(C)C)c3)c1)C2 [Example 169, Methyl 7-(3-{[(3-isopropylphenyl)amino]carbonyl}phenyl)-5,6,7,8-tetrahydro-2,7-naphthyridine-4-carboxylate]",0.015 µM
22,"Nc1ncc2c(n1)CCN(c1cccc(C(=O)Nc3ccc(F)c(C(F)(F)F)c3)c1)C2 [Example 176, 3-(2-amino-7,8-dihydropyrido[4,3-d]pyrimidin-6(5H)-yl)-N-[4-fluoro-3-(trifluoromethyl)phenyl]benzamide]",0.061 µM
